What was measured:
GLP-1R [1] = molecular target: GLP-1R (Homo sapiens, UniProt P43220, D198A); experiment: cAMP accumulation assay, GLP-1R WT, mutant or modified constructs; type: cell-based; design: Flag; expressed in transfected cells; host or cells: HEK293T; conditions: GLP-1R D198A, HEK293T
In short: (§1)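 HEK293T cells transiently expressing wild-type, mutant or modified human GLP-1R (HA signal peptide constructs) were used. Cells were stimulated with peptide agonists for 40 min at room temperature in HBSS with 0.5 mM IBMX and 0.1% BSA or casein. cAMP was quantified by LANCE Ultra TR-FRET (620/650 nm).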

GLP-1R [2] = molecular target: GLP-1R (Homo sapiens, UniProt P43220, R134A); experiment: as above; type: cell-based; design: Flag; expressed in transfected cells; host or cells: HEK293T; conditions: GLP-1R R134A, HEK293T
Sequence of GLP-1R (Homo sapiens, UniProt P43220, R134A) (P43220 24-463 R134A): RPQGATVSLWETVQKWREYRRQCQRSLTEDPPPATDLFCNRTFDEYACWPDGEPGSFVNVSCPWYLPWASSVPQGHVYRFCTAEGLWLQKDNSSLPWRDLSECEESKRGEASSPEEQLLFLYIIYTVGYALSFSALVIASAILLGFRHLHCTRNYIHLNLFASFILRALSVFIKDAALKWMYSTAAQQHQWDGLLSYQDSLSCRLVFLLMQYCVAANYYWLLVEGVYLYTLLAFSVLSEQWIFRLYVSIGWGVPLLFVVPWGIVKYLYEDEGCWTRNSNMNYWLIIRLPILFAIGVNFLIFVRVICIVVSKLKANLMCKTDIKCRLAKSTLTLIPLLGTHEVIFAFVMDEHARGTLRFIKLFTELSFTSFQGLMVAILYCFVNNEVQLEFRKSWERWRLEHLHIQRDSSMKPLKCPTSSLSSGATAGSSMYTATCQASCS
In short: as §1

GLP-1R [3] = molecular target: GLP-1R (Homo sapiens, UniProt P43220, W39A); experiment: as above; type: cell-based; design: Flag; expressed in transfected cells; host or cells: HEK293T; conditions: HEK-293T, GLP-1R W39A; HEK293T
Sequence of GLP-1R (Homo sapiens, UniProt P43220, W39A) (P43220 24-463 W39A): as the sequence (P43220 24-463 R134A) above, with W16A, A111R counted along it
In short: as §1

GLP-1R [4] = molecular target: GLP-1R (Homo sapiens, UniProt P43220, W91A); experiment: as above; type: cell-based; design: Flag; expressed in transfected cells; host or cells: HEK293T; conditions: GLP-1R W91A, HEK293T
Sequence of GLP-1R (Homo sapiens, UniProt P43220, W91A) (P43220 24-463 W91A): as the sequence (P43220 24-463 R134A) above, with W68A, A111R counted along it
In short: as §1

GIPR = molecular target: T1, GIPR (Homo sapiens, UniProt P48546, Y145A); experiment: Whole-cell binding assay, competition with 125I-GIP1-42; conditions: GIPR Y145A; CHO-K1
T1 construct: acylated tirzepatide to the full-length or modified; Flag; expressed in transfected cells
T1 sequence (P48546 22-466 Y145A): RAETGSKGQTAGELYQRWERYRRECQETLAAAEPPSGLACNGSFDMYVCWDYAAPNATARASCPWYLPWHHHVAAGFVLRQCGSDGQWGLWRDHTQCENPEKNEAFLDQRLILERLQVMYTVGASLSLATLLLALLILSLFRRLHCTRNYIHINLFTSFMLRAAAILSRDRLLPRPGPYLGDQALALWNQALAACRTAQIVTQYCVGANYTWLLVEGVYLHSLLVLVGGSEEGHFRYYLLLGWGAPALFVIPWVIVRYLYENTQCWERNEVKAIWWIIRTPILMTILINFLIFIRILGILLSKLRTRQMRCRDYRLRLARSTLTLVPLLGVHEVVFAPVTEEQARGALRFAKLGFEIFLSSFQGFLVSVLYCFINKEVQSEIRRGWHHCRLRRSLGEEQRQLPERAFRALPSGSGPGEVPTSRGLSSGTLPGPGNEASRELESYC
Experimental: (§2) Human embryonic kidney 293 cells containing SV40 large T-antigen (HEK293T) were cultured in DMEM (Gibco) supplemented with 10% (v/v) fetal bovine serum (FBS, Gibco), 1 mM sodium pyruvate (Gibco) and 100 units/mL penicillin and 100 μg/mL streptomycin at 37 °C in 5% CO2. Chinese hamster ovary (CHO-K1) cells were cultured in F-12 (Gibco) containing 10% FBS, 100 units/mL penicillin and 100 μg/mL streptomycin at 37 °C in 5% CO2. For cAMP and receptor expression assays, HEK293T cells were seeded into 6-well cell culture plates at a density of 7 × 10^5 cells per well. After overnight incubation, cells were transfected with GIPR, GLP-1R or GCGR construct using Lipofectamine 2000 or Lipofectamine 3000 transfection reagent (Invitrogen). For whole-cell binding assay, CHO-K1 cells were seeded into 96-well fibronectin-treated cell culture plates at a density of 3 × 10^4 cells per well. […] Following 24 h culturing, the transfected cells were ready for use.
For GIPR, CHO-K1 cells were cultured in F-12 medium with 10% FBS and seeded at a density of 30,000 cells/well in Isoplate-96 plates (PerkinElmer). […] Fifty µL of scintillation cocktail (OptiPhase SuperMix, PerkinElmer) were added and the plates were subsequently counted for radioactivity (counts per minute, CPM) in a MicroBeta^2 microplate counter (PerkinElmer).

GLP-1R [5] = molecular target: T2, GLP-1R (Homo sapiens, UniProt P43220, R299A); experiment: Whole-cell binding assay, competition with 125I-GLP-1(7-36)NH2; conditions: GLP-1R R299A; CHO-K1
T2 construct: Flag; expressed in transfected cells
T2 sequence (P43220 24-463 R299A): as the sequence (P43220 24-463 R134A) above, with A111R, R276A counted along it
Experimental: as §2
(§3) For GLP-1R and GCGR, CHO-K1 cells (30,000 cells/well) were seeded into Isoplate-96 plates and incubated for 24 h at 37 °C in 5% CO2. […] After addition of scintillation cocktail (PerkinElmer), radioactivity (CPM) was counted on a MicroBeta^2 microplate counter (PerkinElmer). Data were normalized to the WT response and analyzed using three-parameter logistic equation.

GLP-1R [6] = molecular target: T3, GLP-1R (Homo sapiens, UniProt P43220, Y152A); experiment: as above; conditions: GLP-1R Y152A; CHO-K1
T3 construct: Flag; expressed in transfected cells
T3 sequence (P43220 24-463 Y152A): as the sequence (P43220 24-463 R134A) above, with A111R, Y129A counted along it
Experimental: as §2, §3

[7] = read-out: cAMP pEC50 (converted)

Sequence of GLP-1R (Homo sapiens, UniProt P43220, D198A) (P43220 24-463 D198A): as the sequence (P43220 24-463 R134A) above, with A111R, D175A counted along it

CCCCCCCCCCCCCCCC(=O)N[C@@H](CCC(=O)NCCCC[C@H](NC(=O)[C@H](CC(=O)O)NC(=O)[C@H](CO)NC(=O)[C@@H](NC(=O)[C@H](Cc1ccccc1)NC(=O)[C@@H](NC(=O)CNC(=O)[C@H](CCC(N)=O)NC(=O)C(C)(C)NC(=O)[C@@H](N)Cc1c[nH]cn1)[C@@H](C)O)[C@@H](C)O)C(=O)N[C@@H](CO)C(=O)N[C@@H](CCCCN)C(=O)N[C@@H](Cc1ccc(O)cc1)C(=O)N[C@@H](CC(C)C)C(=O)N[C@@H](CC(=O)O)C(=O)N[C@@H](CCC(=O)O)C(=O)N[C@@H](CCCNC(=N)N)C(=O)N[C@@H](C)C(=O)N[C@@H](C)C(=O)N[C@@H](CCC(N)=O)C(=O)N[C@@H](CC(=O)O)C(=O)N[C@@H](Cc1ccccc1)C(=O)N[C@H](C(=O)N[C@@H](CCC(N)=O)C(=O)N[C@@H](Cc1c[nH]c2ccccc12)C(=O)N[C@@H](CC(C)C)C(=O)N[C@@H](CC(C)C)C(=O)N[C@@H](CC(=O)O)C(=O)NCC(=O)NCC(=O)N1CCC[C@H]1C(=O)N[C@@H](CO)C(=O)N[C@@H](CO)C(=O)NCC(=O)N[C@@H](C)C(=O)N1CCC[C@H]1C(=O)N1CCC[C@H]1C(=O)N1CCC[C@H]1C(=O)N[C@@H](CO)C(N)=O)C(C)C)C(=O)O [Peptide 20]
EC50 (GLP-1R [1]; [7]): 4.47 pM
Emax (GLP-1R [1]; HEK-293T): 99.9 ± 1.82%
EC50 (GLP-1R [2]; [7]): 6.61 pM
Emax (GLP-1R [2]; HEK-293T): 101 ± 1.08%
Emax (GLP-1R [3]): 100 ± 1.04%
EC50 (GLP-1R [4]; [7]): 6.03 pM
Emax (GLP-1R [4]; HEK-293T): 100 ± 1.33%

CC[C@H](C)[C@H](NC(=O)[C@H](CC(C)C)NC(=O)[C@H](Cc1c[nH]c2ccccc12)NC(=O)[C@H](CCC(N)=O)NC(=O)[C@@H](NC(=O)[C@H](Cc1ccccc1)NC(=O)[C@H](C)NC(=O)[C@H](CCCCNC(=O)COCCOCCNC(=O)COCCOCCNC(=O)CC[C@H](NC(=O)CCCCCCCCCCCCCCCCCCC(=O)O)C(=O)O)NC(=O)[C@H](CCC(N)=O)NC(=O)[C@H](C)NC(=O)[C@@H](NC(=O)[C@H](CCCCN)NC(=O)[C@H](CC(=O)O)NC(=O)[C@H](CC(C)C)NC(=O)C(C)(C)NC(=O)[C@@H](NC(=O)[C@H](CO)NC(=O)[C@H](Cc1ccc(O)cc1)NC(=O)[C@H](CC(=O)O)NC(=O)[C@H](CO)NC(=O)[C@@H](NC(=O)[C@H](Cc1ccccc1)NC(=O)[C@@H](NC(=O)CNC(=O)[C@H](CCC(=O)O)NC(=O)C(C)(C)NC(=O)[C@@H](N)Cc1ccc(O)cc1)[C@@H](C)O)[C@@H](C)O)[C@@H](C)CC)[C@@H](C)CC)C(C)C)C(=O)N[C@@H](C)C(=O)NCC(=O)NCC(=O)N1CCC[C@H]1C(=O)N[C@@H](CO)C(=O)N[C@@H](CO)C(=O)NCC(=O)N[C@@H](C)C(=O)N1CCC[C@H]1C(=O)N1CCC[C@H]1C(=O)N1CCC[C@H]1C(=O)N[C@@H](CO)C(N)=O [Tirzepatide]
binding pIC50 (GIPR): N.B.
binding Span (GLP-1R [5]): 8.59 ± 1.61 % WT
binding Span (GLP-1R [6]): 11.22 ± 2.82 % WT

Source: publication PMC8881610 (Nature Communications, 2022)
